Experiment in all cases: pTyr-Var library bacterial peptide display kinase screen (enrichment scores)
Assay [1] addresses c-Src kinase domain (Homo sapiens, UniProt P12931). The format is biochemical. The following applies: sheet "Src".
In assay [2] the test system is EPHB1 kinase domain. The format is biochemical, human. The note with it: for Screen: sheet EPHB1, effect of the variant peptide relative to its reference peptide in the pTyr-Var library screen (enrichment scores); for Screen (variant relative to reference peptide, measured in the pTyr-Var library screen): sheet "EPHB1", variant seq vs reference seq, bacterial peptide display enrichment.

Assay [3] concerns Fer kinase domain. The format is biochemical, mouse. The following applies: sheet "Fer".
The subject of assay [4] is EPHB2 kinase domain. The format is biochemical, human. The note with it: sheet EPHB2.
For assay [5], the target named is T1, c-Abl kinase domain (Mus musculus, UniProt P00520).
T1 sequence (P00520 242-493 limits assumed): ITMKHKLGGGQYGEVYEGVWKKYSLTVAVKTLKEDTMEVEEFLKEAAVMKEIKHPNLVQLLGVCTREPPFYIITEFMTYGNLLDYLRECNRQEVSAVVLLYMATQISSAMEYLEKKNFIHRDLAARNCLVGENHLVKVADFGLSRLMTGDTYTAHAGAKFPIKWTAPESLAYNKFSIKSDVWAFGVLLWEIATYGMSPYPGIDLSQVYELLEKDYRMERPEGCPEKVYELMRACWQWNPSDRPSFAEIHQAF
It is filed as biochemical.

The mark [6] stands for this setting: variant peptide versus its reference peptide in the pTyr-Var library screen.
Where [7] appears, read: value of the variant peptide against its reference peptide in the pTyr-Var library screen with Fer.
The mark [8] stands for this setting: effect of variant peptide relative to its reference peptide in the pTyr-Var library screen (enrichment scores).
[9] abbreviates: effect of the variant peptide relative to its reference peptide in the pTyr-Var library screen.
The mark [10] stands for this setting: variant peptide relative to its reference peptide, pTyr-Var library screen enrichment.
The mark [11] stands for this setting: effect of the variant relative to its reference peptide in the pTyr-Var library screen.
[12] abbreviates: fig5-data2, sheet "Abl", Screen for the variant/reference peptide pair, pTyr-Var library.

For the sequence AAAAVYTFLPD [MYORG_Y36_M35V], the Screen was 0.6423 in assay [1] (setting [6]), 0.3532 in assay [2], 0.8509 in assay [3] (setting [7]) and 0.71 in assay [4] (setting [8]).

Turning to ADCRFYTFPQM [GAMT_Y223_A224T_YF], the Screen in assay [2] is -1.572; in assay [3] (setting [7]) it was -1.641; in assay [4] (setting [8]), -2.189.

Take ASENVYVNTAH [CTSC_Y150_I153T]: the Screen in assay [1] (setting [9]) is reported as -1.46; in assay [2], -1.518; in assay [3] (setting [7]), -2.892.

For CFSSEYHFVGG [CTSC_Y345_Y340C_YF], the Screen in assay [1] (setting [9]) is listed as -0.6697; in assay [2], -0.7957; in assay [4] (setting [8]), -0.9567.

Take CPSLLYSPVSS [CAMKK2_Y128_P127L]: the Screen in assay [1] (setting [9]) is 2.179; in assay [2], 3.226; in assay [3] (setting [7]) it was 2.071; in assay [4] (setting [8]) it was 2.723.

For the sequence DNEALYDICFC [TUBB3_Y208_R213C], the Screen in assay [1] (setting [6]) worked out at 0.09389; in assay [3] (setting [10]), 0.2993; in assay [4] (setting [11]), 0.1536. Besides, the “Screen (variant relative to reference peptide, measured in the pTyr-Var library screen)” value in assay [2] is -0.1227.

Regarding DNEALYDTCFR [TUBB2B_Y208_I210T], the results for the Screen in assay [1] (setting [6]), in assay [3] (setting [10]) and in assay [4] (setting [11]) were -0.1626, -0.2841 and -0.7919, respectively. Besides, in assay [2], the “Screen (variant relative to reference peptide, measured in the pTyr-Var library screen)” value is -0.7019.

In the case of DPLLTYWFPPK [LMNA_Y481_R482W], the Screen amounted to 3.284 in assay [1] (setting [9]), 4.875 in assay [2] and 5.36 in assay [4] (setting [8]).

On to FNSLLYQVPTS [CALCOCO2_Y358_P357L], for which the Screen was found to be 2.72 in assay [1] (setting [9]), 4.751 in assay [2], 3.519 in assay [3] (setting [7]) and 5.149 in assay [4] (setting [8]).

For HMEAVYIDIAD [PITPNA_Y140_V136M], the Screen is reported as 0.9488 in assay [1] (setting [6]), 1.841 in assay [2], 1.696 in assay [3] (setting [7]) and 1.927 in assay [4] (setting [8]).

In assay [4] (setting [8]), HRGCLYLAIEF [TEK_Y899_Y897C_YF] displayed a Screen of 0.2155.

As for KCCCIYEKPRS [PPP1R11_Y64_A69S], the figures for the Screen in assay [1] (setting [6]), in assay [3] (setting [7]) and in assay [5] (setting [12]) were -0.2424, -0.1382 and 0.7147, respectively.

In the case of KMKGDYFCFLA [YWHAG_Y130_R132C_YF], the Screen in assay [1] (setting [6]) came out at 0.4816; in assay [4] (setting [11]) it was 1.601. Moreover, in assay [2], the “Screen (variant relative to reference peptide, measured in the pTyr-Var library screen)” value is listed as 1.698.

For LEQGEYALRSH [HADHB_Y244_D242G], the Screen in assay [4] (setting [8]) was -1.376.

Take LHNLFYQLEAE [PKP2_Y616_S615F]: the Screen in assay [1] (setting [6]) stood at 4.082; in assay [3] (setting [7]) it was 1.632; in assay [4] (setting [8]) it was 1.672.

As to NAGDFYDLFGG [PTPN11_Y63_T59A_YF], the Screen is 0.4386 in assay [1] (setting [6]), 0.394 in assay [3] (setting [10]) and -0.2092 in assay [5] (setting [12]).

Take NNDLCYWVLEL [IARS1_Y434_P437L]: the Screen in assay [1] (setting [9]) is 1.285; in assay [2], -1.633; in assay [4] (setting [8]), -2.3.

NNHGNYIVLLG [ETFDH_Y172_R175L]: the Screen turned out to be 3.773 in assay [2] and 2.804 in assay [4] (setting [8]).

Take PKSWNYELPAT [PROM1_Y34_A31S]: the results for the Screen in assay [2] and in assay [4] (setting [8]) were 0.9154 and 0.6095, respectively.

As for PLDGEYFTPQI [TP53_Y327_L330P], the Screen in assay [1] (setting [6]) was -3.182; in assay [4] (setting [11]), 0.1464. Besides, the “Screen (variant relative to reference peptide, measured in the pTyr-Var library screen)” value in assay [2] is -0.3708.

As to PNAFIYVVQLP [L1CAM_Y420_A415P_YF], the Screen in assay [5] (setting [12]) is recorded as 0.6294; in assay [4] (setting [8]) it was 0.851.

Consider RRIHSYRGFLW [VHL_Y112_H115Y_YF], for which the Screen in assay [1] (setting [6]) is recorded as -2.75; in assay [5] (sheet "Abl", effect of variant peptide relative to its reference peptide in pTyr-Var library screen (enrichment)) it was -4.49; in assay [4] (setting [11]), -0.9029. The “Screen (variant relative to reference peptide, measured in the pTyr-Var library screen)” value in assay [2] is listed as -2.336.

The record behind these values is publication PMC10065799, “High-throughput profiling of sequence recognition by tyrosine kinases and SH2 domains using bacterial peptide display” (eLife, 2023).
